Data on ten compounds can be found in patent US9314485B2, “Use of PI3K M-TOR and AKT inhibitors to induce FOXP3 expression and generate regulatory T cells” (Medical Research Council, priority 2006, dated 2016).

SMILES strings stand for the structures.

The subject of series [1] is naive CD62LhiCD4+CD25− LN T cells. Put plainly: Foxp3 induction in newly activated naive CD4 T cells (intracellular staining). It counts as cell-based, mouse. The conditions noted are these: for effect on Foxp3 expression (in words): newly activated T cells deprived of TCR signals; for percentage of cells expressing Foxp3: added 18 hours after activation with TCR signal deprivation, read within 24-48 hours; for Foxp3 expression in control cultures, TCR signal deprived cultures subtracted: serum free AIM-V medium, without anti TGFβ and SB431542, 24-48 hours / 2 days. How it is done: Mouse strains, cell sorting and culture Animal work was carried out according the Animals (Scientific Procedures) Act, UK. Lymph node (LN) cells were stained, analysed and sorted by flow cytometry as described (Cobb et al 2005 J. Exp. Med. 201: 1367-1373). Intracellular staining for Foxp3 protein was done as advised by the manufacturers (eBiosciences.com). The phosphorylation syatus of S6 ribosomal protein was determined using anti pS6 Ser235/236 (Cellsignaling cat.no. 2211, http://www.cellsignal.com) using the eBioscience Foxp3 staining kit and anti rabbit IgG-FITC or IgG-Cy5 (Jackson Immunoresearch). For induction of Foxp3 expression, sorted LN CD4+ CD25− CD62Lhi T cells were cultured at 1-3×10^6/ml with plate bound anti-TCRβ. […] After 18 hours the cells were either left in place for continued TCR stimulation or moved to uncoated wells with the indicated additives. To assess regulatory function, CD4 T cells cultured as indicated were titrated into round bottom wells containing either 1×10^5 CFSE labeled total LN cells or 5×10^4 CFSE labeled CD4^+ CD25^− T cells and 1×10^5 mitomycin-C treated (25 μg/ml, 20 min, 37° C.) T cell depleted splenocytes with the indicated concentrations of anti CD3 (2C11, Pharmingen). CD4 T cell CFSE profiles were recorded between 48 and 72 hours later.
Mice, Cell Sorting and Culture. Animal work was carried out according to the Animals (Scientific Procedures) Act, UK. Lymph node (LN) cells or thymocytes from wild type were stained, analysed and sorted by flow cytometry as described (Thompson et al., 2007 Immunity VoI 26 pp 335-344) from wild type (C57BL/6, BALB/c or C57BL/6×129) mice or from Rag1 deficient H2^b AND TCR transgenic mice. Antigen presenting cells were derived from bone marrow in the presence of GM-CSF and incubated with antigenic peptide. Intracellular staining for Foxp3 protein was done as advised by the manufacturers (eBiosciences.com). The phosphorylation status of S6 ribosomal protein was determined using anti pS6 Ser235/236 (Cell Signaling cat.no. 2211, http://www.cellsignal.com) using the eBioscience Foxp3 staining kit and anti rabbit IgG-FITC or IgG-Cy5 (Jackson ImmunoResearch). […] After 18 hours the cells were either left in place for continued TCR stimulation or moved to uncoated wells with the indicated additives. To assess regulatory function, CD4 T cells cultured as indicated were titrated into round bottom wells containing either 1×10^5 CFSE labeled total LN cells or 5×10^4 CFSE labeled CD4^+CD25^− T cells and 1×10^5 mitomycin-C treated (25 μg/ml, 20 min, 37° C.) T cell depleted splenocytes with the indicated concentrations of anti CD3 (2C11, Pharmingen). CD4 T cell CFSE profiles were recorded between 48 and 72 hours later.

A further series concerns the target PI3KC2α (Homo sapiens, UniProt O00443). The settings on record: unit inferred; read-out: Specificity for PI3KC2α (IC50 determined in vitro); cited from earlier work.
Series [2] has as its system PI4P5KIα. The conditions noted are these: second PI4P5KIα line; unit inferred; read-out: Specificity for PI4P5KIα (IC50 determined in vitro); cited from earlier work.
The target in the next series is PI4KIIα (Homo sapiens, UniProt Q9BTU6). The conditions noted are these: unit inferred; read-out: Specificity for PI4KIIα (IC50 determined in vitro); cited from earlier work.
Another series has as its target ATR (Homo sapiens, UniProt Q13535). The settings on record: unit inferred; read-out: Specificity for ATR (IC50 determined in vitro); cited from earlier work.
The target in another series is ATM (Homo sapiens, UniProt Q13315). The settings on record: unit inferred; read-out: Specificity for ATM (IC50 determined in vitro); cited from earlier work.
The next series addresses PI4KIIIα (Homo sapiens, UniProt P42356). The settings on record: unit inferred; read-out: Specificity for PI4KIIIα (IC50 determined in vitro); cited from earlier work.
A further series has as its target PI3KC2β (Homo sapiens, UniProt O00750). The conditions noted are these: unit inferred; read-out: Specificity for PI3KC2β (IC50 determined in vitro); cited from earlier work.
Another series addresses DNA-PK (Homo sapiens, UniProt P78527). The settings on record: unit inferred; read-out: Specificity for DNA-PK (IC50 determined in vitro); cited from earlier work.
In another series the target is T1, PI5P4KIIβ (Homo sapiens, UniProt P78356).
T1 sequence (P78356 1-416): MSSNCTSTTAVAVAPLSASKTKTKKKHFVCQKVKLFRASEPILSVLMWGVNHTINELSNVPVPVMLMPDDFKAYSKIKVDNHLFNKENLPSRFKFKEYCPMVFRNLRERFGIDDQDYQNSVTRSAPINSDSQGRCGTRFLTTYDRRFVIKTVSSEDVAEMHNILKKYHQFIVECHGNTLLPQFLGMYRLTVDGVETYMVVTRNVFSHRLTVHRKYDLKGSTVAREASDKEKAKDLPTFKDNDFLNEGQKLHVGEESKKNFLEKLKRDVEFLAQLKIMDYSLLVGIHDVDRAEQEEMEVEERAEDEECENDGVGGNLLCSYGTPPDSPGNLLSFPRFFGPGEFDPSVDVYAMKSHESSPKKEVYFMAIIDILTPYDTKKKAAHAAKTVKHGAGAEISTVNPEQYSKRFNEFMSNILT
The conditions noted are these: unit inferred; read-out: Specificity for PI5P4KIIβ (IC50 determined in vitro); cited from earlier work.

A further series addresses PI4KIIIβ (Homo sapiens, UniProt Q9UBF8). The conditions noted are these: unit inferred; read-out: Specificity for PI4KIIIβ (IC50 determined in vitro); cited from earlier work.
Another series addresses mTORC1 (Homo sapiens, UniProt P42345). The conditions noted are these: unit inferred; read-out: Specificity for mTORC1 (IC50 determined in vitro); cited from earlier work.
In series [3] the target is PI4P5KIα (Homo sapiens, UniProt Q99755). The settings on record: first PI4P5KIα line; unit inferred; read-out: Specificity for PI4P5KIα (IC50 determined in vitro); cited from earlier work.
Where [4] appears, read: serum free AIM-V, anti TGFβ 3 μg/ml, SB431542 20 μM.

Chain of PI3KC2α (O00443 whole entry, species assumed): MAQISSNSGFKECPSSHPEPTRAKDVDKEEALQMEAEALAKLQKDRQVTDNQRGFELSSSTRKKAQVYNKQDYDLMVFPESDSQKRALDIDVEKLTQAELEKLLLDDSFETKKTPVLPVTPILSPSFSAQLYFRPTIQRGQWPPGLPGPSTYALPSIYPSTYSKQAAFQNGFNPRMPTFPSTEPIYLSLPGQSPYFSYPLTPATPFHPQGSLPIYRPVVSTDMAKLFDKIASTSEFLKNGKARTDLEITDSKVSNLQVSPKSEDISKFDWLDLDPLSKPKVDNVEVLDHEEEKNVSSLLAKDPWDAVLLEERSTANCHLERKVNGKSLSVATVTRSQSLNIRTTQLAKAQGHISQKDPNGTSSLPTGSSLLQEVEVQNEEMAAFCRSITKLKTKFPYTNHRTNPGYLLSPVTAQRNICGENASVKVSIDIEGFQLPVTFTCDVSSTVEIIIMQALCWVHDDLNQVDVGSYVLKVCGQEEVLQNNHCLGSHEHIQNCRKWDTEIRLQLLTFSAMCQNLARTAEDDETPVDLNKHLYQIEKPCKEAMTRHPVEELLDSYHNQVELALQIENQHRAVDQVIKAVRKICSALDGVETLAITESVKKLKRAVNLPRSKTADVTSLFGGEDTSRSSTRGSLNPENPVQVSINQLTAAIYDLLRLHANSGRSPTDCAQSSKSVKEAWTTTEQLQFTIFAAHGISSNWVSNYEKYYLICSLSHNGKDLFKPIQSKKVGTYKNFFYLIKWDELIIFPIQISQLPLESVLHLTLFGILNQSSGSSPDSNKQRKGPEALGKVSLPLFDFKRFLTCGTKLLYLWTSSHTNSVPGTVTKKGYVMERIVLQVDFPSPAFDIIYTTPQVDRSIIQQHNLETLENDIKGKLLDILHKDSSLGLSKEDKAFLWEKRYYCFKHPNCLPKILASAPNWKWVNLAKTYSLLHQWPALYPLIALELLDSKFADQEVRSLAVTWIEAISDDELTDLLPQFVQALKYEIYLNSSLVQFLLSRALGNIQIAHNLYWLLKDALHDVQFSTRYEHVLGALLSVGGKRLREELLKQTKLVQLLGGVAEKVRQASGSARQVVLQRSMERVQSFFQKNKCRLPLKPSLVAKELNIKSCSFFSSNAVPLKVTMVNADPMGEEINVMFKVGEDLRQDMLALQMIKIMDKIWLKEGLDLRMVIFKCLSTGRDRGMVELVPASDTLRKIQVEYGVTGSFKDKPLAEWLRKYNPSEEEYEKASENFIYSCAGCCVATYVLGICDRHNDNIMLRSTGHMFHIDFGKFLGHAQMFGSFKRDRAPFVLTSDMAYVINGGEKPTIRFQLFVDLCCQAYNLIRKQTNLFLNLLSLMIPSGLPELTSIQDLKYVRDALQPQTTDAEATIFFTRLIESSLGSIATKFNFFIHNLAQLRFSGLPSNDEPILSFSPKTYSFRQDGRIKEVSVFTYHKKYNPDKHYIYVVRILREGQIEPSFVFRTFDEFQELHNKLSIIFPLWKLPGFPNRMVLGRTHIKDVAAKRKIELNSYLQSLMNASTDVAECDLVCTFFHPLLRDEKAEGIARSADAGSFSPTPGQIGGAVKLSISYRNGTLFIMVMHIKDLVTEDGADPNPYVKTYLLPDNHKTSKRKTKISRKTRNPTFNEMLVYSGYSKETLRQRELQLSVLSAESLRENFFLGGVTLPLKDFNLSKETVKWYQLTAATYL
Chain of ATM (Q13315 whole entry, species assumed): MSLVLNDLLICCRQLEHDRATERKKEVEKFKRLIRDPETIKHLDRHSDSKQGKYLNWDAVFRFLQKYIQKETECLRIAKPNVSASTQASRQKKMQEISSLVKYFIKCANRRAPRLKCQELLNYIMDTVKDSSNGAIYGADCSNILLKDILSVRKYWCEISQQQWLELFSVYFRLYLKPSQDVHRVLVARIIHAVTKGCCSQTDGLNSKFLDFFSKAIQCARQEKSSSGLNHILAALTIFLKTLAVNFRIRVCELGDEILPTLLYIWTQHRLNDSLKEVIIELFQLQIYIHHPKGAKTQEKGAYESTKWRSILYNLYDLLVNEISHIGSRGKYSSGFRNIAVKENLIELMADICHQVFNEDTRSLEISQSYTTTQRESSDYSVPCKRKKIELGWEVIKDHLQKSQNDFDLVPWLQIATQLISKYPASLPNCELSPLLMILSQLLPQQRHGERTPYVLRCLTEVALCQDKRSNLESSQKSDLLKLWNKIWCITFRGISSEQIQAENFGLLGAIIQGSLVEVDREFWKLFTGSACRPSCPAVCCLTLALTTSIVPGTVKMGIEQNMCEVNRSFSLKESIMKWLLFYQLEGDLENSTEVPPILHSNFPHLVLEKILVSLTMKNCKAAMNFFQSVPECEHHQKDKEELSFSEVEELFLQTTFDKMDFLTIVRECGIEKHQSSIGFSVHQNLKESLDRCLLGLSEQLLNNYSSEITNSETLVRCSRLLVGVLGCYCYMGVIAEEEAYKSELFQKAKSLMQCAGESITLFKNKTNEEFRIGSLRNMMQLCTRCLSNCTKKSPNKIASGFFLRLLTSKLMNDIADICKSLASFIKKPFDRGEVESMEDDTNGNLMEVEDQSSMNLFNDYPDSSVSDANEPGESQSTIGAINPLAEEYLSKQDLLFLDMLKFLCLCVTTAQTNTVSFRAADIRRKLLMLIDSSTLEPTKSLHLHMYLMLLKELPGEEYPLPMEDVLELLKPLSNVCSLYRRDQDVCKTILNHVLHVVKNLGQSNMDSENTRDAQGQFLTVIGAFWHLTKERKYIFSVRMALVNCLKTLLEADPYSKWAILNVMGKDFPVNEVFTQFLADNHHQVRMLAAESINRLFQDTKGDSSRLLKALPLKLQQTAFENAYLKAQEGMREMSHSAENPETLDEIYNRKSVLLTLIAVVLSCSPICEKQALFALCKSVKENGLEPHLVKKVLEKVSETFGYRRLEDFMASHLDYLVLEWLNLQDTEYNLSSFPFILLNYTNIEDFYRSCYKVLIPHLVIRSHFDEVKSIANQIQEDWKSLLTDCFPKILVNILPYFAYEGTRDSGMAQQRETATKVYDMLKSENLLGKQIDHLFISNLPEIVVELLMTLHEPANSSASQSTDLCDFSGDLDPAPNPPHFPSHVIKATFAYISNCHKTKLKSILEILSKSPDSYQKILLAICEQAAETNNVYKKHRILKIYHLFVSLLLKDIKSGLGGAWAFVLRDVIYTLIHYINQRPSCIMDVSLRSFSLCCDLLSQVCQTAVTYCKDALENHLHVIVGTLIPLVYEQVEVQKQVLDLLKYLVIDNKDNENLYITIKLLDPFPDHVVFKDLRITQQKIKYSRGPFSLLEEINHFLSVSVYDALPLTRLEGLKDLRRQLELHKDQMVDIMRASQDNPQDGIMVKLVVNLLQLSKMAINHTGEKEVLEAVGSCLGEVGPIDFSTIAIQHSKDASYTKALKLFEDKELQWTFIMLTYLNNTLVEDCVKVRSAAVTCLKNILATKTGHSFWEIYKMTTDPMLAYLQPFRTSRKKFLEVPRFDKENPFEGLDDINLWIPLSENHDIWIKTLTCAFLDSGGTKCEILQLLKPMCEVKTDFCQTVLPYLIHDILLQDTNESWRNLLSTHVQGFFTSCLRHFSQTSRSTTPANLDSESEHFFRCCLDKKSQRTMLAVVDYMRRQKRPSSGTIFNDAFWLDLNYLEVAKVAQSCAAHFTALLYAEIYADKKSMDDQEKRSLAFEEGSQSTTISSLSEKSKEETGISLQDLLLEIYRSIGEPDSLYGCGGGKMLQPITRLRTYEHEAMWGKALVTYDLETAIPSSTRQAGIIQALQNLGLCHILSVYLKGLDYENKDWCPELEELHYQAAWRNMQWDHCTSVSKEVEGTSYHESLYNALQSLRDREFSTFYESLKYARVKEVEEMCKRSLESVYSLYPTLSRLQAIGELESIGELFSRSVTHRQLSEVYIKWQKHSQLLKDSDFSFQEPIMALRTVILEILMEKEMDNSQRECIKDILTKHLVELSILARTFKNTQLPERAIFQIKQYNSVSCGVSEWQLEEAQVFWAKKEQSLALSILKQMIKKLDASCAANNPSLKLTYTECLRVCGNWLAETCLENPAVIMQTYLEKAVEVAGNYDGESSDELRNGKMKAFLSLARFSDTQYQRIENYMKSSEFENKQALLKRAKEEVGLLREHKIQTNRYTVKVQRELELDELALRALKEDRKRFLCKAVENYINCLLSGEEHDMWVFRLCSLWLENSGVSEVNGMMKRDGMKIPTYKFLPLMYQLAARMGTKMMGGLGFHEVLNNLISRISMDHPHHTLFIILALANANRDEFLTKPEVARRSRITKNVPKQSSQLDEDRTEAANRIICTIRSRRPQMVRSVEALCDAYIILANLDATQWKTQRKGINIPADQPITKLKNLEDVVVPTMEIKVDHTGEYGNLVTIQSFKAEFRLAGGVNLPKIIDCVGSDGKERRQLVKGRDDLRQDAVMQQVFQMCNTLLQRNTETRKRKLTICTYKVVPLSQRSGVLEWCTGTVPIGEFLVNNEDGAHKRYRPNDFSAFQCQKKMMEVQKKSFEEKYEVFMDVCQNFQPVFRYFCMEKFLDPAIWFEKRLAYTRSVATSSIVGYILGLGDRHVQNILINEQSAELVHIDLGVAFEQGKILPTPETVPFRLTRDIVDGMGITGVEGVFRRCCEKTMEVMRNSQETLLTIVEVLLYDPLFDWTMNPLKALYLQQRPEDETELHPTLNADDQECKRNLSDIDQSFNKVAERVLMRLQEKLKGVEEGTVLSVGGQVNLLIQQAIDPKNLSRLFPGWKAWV

For `O=c1[nH]c2ccccc2n1C1CCN(Cc2ccc(-c3nc4cc5nc[nH]c5cc4nc3-c3ccccc3)cc2)CC1` [Akti-1/2], the “effect on Foxp3 expression (in words)” value is “enhanced Foxp3 expression” in series [1] and “induces Foxp3 expression” in [1] (listed as Akti 1/2).

As to `CC(C)C[C@H](NC(=O)[C@H](Cc1ccccc1)C[C@@H](O)[C@H](Cc1ccccc1)NC(=O)OC(C)(C)C)C(=O)N[C@@H](Cc1ccccc1)C(N)=O` [L-685458], the “effect on Foxp3 expression (in words)” value in [1] is reported as “None of these detectably enhanced the expression of Foxp3”.

`O=c1cc(N2CCNCC2)oc2c(-c3ccccc3)cccc12` [Ly303511, 2-piperazinyl-8-phenyl-4H-1-benzopyran-4-one]: the “percentage of cells expressing Foxp3” value in series [1] is listed as 6.6±3.0%.

Broadly, the IC50 is the concentration that gives 50% inhibition. Take `Oc1cccc(-c2nc(N3CCOCC3)c3oc4ncccc4c3n2)c1` [PI-103]: the half-inhibitory concentration (IC50) was about 1000 nM at PI3KC2α; over 100000 nM in the series with PI4P5KIα [2]; over 100000 nM at PI4KIIα; 850 nM on ATR; 920 nM at ATM; over 100000 nM at PI4KIIIα. In [1] (IC-87114 down to 0.01 μM), the “increase in Foxp3 expressing cells over and above TCR deprivation alone” value is over 20%. For the same compound, in series [1], the “effect on Foxp3 expression (in words)” value is “strongly induced Foxp3”. Besides, in [1], the “Foxp3 expression in control cultures, TCR signal deprived cultures subtracted” value (“Foxp3 expression in control cultures” for short) amounted to 35.1±3.8%.

As to `Cc1ccc([N+](=O)[O-])cc1S(=O)(=O)N(C)/N=C/c1cnc2ccc(Br)cn12` [PIK75], the “toxicity in the Foxp3 induction assay” value in [1] (over the duration of the assay) is “toxicity over the duration of our assay”.

With `COc1ccc2c(c1OC)N=C(NC(=O)c1cccnc1)N1CCN=C21` [PIK90], the IC50 was 47 nM at PI3KC2α; over 100000 nM in the series with PI4P5KIα [2]; over 100000 nM on PI4KIIα; 64 nM at PI3KC2β; 15000 nM on ATR; 610 nM at ATM. For the same compound, the IC50 is 13 nM at DNA-PK; over 100000 nM at PI5P4KIIβ; 3100 nM on PI4KIIIβ; 1050 nM on mTORC1; 830 nM on PI4KIIIα; over 100000 nM at PI4P5KIα [3]. Moreover, the “effect on Foxp3 expression at 0.1 μM” value in series [1] (0.1 μM) is reported as “strongly induced Foxp3”. Also, the “Foxp3 expression in control cultures” value in [1] turned out to be 36.0±12.9%.

Turning to `O=C1NC(=O)/C(=C\c2ccc3nccnc3c2)S1` [SA-605240], the “effect on Foxp3 expression (in words)” value in [1] (listed as AS-605240) is on record as “affected Foxp3 only at concentrations far in excess of its IC50 for p110γ”.

`NC(=O)c1ccc(-c2nc(-c3ccc4c(c3)OCO4)c(-c3ccccn3)[nH]2)cc1` [SB431542]: in series [1] (setting [4]), the “effect on Foxp3 induction by PI3K/mTOR inhibitors” value is reported as “had no effect” and the “reduction of Foxp3 induction by TGFβ” value is given as 96%.

`COC[C@H]1OC(=O)c2coc3c2[C@@]1(C)C1=C(C3=O)[C@@H]2CCC(=O)[C@@]2(C)C[C@H]1OC(C)=O` [Wortmannin]: in [1], the “percentage of cells expressing Foxp3” value stood at 17.3±5.3%.

Consider `CO[C@H]1C[C@@H]2CC[C@@H](C)[C@@](O)(O2)C(=O)C(=O)N2CCCC[C@H]2C(=O)O[C@H]([C@H](C)C[C@@H]2CC[C@@H](O)[C@H](OC)C2)CC(=O)[C@H](C)/C=C(\C)[C@@H](O)[C@@H](OC)C(=O)[C@H](C)C[C@H](C)/C=C/C=C/C=C/1C` [rapamycin], for which the “% Foxp3+ cells (nutrient deprivation experiment)” value in series [1] (18 hour activated CD4 T cells) was 25 % Foxp3^+. In addition, in series [1], the “percentage of cells expressing Foxp3” value worked out at 26.8±14.4% and the “Foxp3 expression in control cultures” value turned out to be 28.6±9.0%.
